Patent publication US7018989B2, “Chemical compounds” (University College Cardiff Consultants, LTD, priority 1995, dated 2006)
Where two headings read alike, the source gives them in different places.

Experiments:
[1] = test system: HIV-1; experiment: microbe, parasite or virus in culture; settings: read-out: HIV1 CEM: EC50 for inhibition of HIV-1 in CEM cells
Method in brief: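 Giant cell formation, recorded under the microscope on day 4, served as the end point for CEM cells, while MT-4 viability was determined by trypan blue exclusion on day 5. Cell suspensions (5×10^5/mL) received virus at 100 CCID50/mL before compound addition.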

[2] = test system: HIV-2; experiment: Inhibition of HIV-2 in CEM/TK- cells; assay type: cell-based
Method in brief: (§1)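 5×10^5 cells/mL, 100 CCID50/mL virus, + compound dilutions. CEM: giant cells scored microscopically, day 4. MT-4: viability by trypan blue, day 5.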

[3] = test system: HIV-2; experiment: Inhibition of HIV-2 in MT4 cells; assay type: cell-based; settings: read-out: HIV2 MT4: EC50 for inhibition of HIV-2 in MT4 cells
Experimental: (§2) Cells were infected with HIV-1 as previously described [Balzarini et al. AIDS (1991), 5, 21–28]. Briefly, 5×10^5 cells per milliliter were infected with HIV-1 or HIV-2 at 100 CCID50 (50% cell culture infective dose) per milliliter of cell suspension. Then 100 μL of the infected cell suspension was transferred to microtiter plate wells and mixed with 100 μL of the appropriate dilutions of the test compounds. After 4 days giant cell formation was recorded microscopically in the HIV-infected cell cultures [CEM], and after 5 days the number of viable cells was determined by trypan blue staining of the HIV-infected cell cultures [MT4].
(§3) The data columns are, in order: • HIV1 MT4: EC50 in μM for inhibition of HIV-1 in MT4 cells. • HIV2 MT4: EC50 in μM for inhibition of HIV-2 in MT4 cells. • CC50 MT4: CC50 in μM for toxicity to MT-4 cells. • HIV1 CEM: EC50 in μM for inhibition of HIV-1 in CEM cells. • HIV2 CEM: EC50 in μM for inhibition of HIV-2 in CEM cells. • HIV2 CEM-TK-: EC50 in μM for inhibition of HIV-2 in CEM/TK^− cells. • CC50 CEM: CC50 in μM for toxicity to CEM cells. • EC50 MSV: EC50 in μM for inhibition of MSV • MCC MSV: Minimum cytotoxic concentration in MSV assay

[4] = test system: III-B strain of HIV-1; experiment: microbe, parasite or virus in culture; assay type: cell-based; settings: for EC50: HIV1 in C8166 cells, Table 3, read-out: Activity EC50
Experimental: (§4) C8166 cells. Cells were grown in RPMI 1640 with 10% calf serum. 4×10^4 cells per microtiter plate well were mixed with 5-fold dilutions of compound prior to addition of 10 CCID50 units of III-B strain of HIV-1 and incubated for 5–7 days (Betbeder et al. Antiviral Chem. Chemother. 1, 241–247, 1990). Formation of syncytia was examined from 2 days post-infection. Culture fluid was collected at 5–7 days and gp120 antigen production measured by ELISA (Mahmood and Hay, J. Immunol. Meth., 151, 9–13, 1992). […] Cell viability of infected and uninfected cells were assessed by the MTT-Formazen method (Pauwels et al. J. Virol. Meth. 20, 309–321, 1988).
(§5) Each assay was carried out in duplicate, on at least two separate occasions, and data quoted are the average of each separate assay.

[5] = test system: MT-4 cells; experiment: Toxicity to MT-4 cells; assay type: cell-based, human; settings: read-out: CC50 MT4: CC50 for toxicity to MT-4 cells
Experimental: as §2, §3

[6] = test system: HIV-2; experiment: Inhibition of HIV-2 in CEM cells (giant cell formation); assay type: cell-based; settings: read-out: HIV2 CEM: EC50 for inhibition of HIV-2 in CEM cells
Method in brief: as §1

[7] = test system: CEM cells; experiment: Toxicity to CEM cells; assay type: cell-based, human; settings: Table 6; mean of two or more repeat experiments
[8] = test system: HIV-1; experiment: Inhibition of HIV-1 in MT4 cells; assay type: cell-based; settings: read-out: HIV1 MT4: EC50 for inhibition of HIV-1 in MT4 cells
Experimental: as §2, §3

[9] = test system: C8166 cells; experiment: Toxicity in C8166 cells (MTT-Formazen); assay type: cell-based; settings: Table 3
Experimental: as §4, §5

[10] = Table 6, mean of two or more repeat experiments
[11] = Table 6, mean of two or more repeat experiments, read-out: HIV2 CEM-TK-: EC50 for inhibition of HIV-2 in CEM/TK^− cells
[12] = CEM/TK- cells, HIV-2, read-out: HIV2 CEM-TK-: EC50 for inhibition of HIV-2 in CEM/TK- cells

CCc1ccc(OP(=O)(N[C@@H](C)C(=O)OC)OCC2C=CC(n3cc(C)c(=O)[nH]c3=O)O2)cc1 (some centres unmarked) [Compound 323, 2′,3′-dideoxy-2′,3′-didehydrothymidine 5′-(p-ethylphenylmethoxyalaninyl) Phosphoramidate]
EC50 [1, 10]: 0.07 µM | EC50 [2, 11]: 0.06 µM | EC50 [3, 10]: 0.063 µM | Selectivity CC50/EC50 × 10^3 [4]: 15.6 × 10^3 | EC50 [4]: 0.0032 µM | CC50 [5, 10]: > 100 µM | EC50 [6, 10]: 0.16 µM | CC50 [7]: 60 µM | EC50 [8, 10]: 0.057 µM | CC50 [9]: 50 µM

COC(=O)C(Cc1ccccc1)NP(=O)(OCC1C=CC(n2cc(C)c(=O)[nH]c2=O)O1)OCC(Cl)(Cl)Cl (centres unmarked) [Compound 325]
EC50 [1, 10]: 1 µM | EC50 [2, 11]: 0.7 µM | EC50 [3, 10]: 0.5 µM | CC50 [5, 10]: > 100 µM | EC50 [6, 10]: 2 µM | EC50 [8, 10]: 0.44 µM

CCCOP(=O)(N[C@@H](C)C(=O)OC)OC[C@@H]1C=C[C@H](n2cc(C)c(=O)[nH]c2=O)O1 (some centres unmarked) [Compound 326]
EC50 [1, 10]: > 230 µM | EC50 [2, 11]: 135 µM | EC50 [3, 10]: 84 µM | CC50 [5, 10]: > 250 µM | EC50 [6, 10]: > 230 µM | CC50 [7]: ≥ 250 µM | EC50 [8, 10]: 36 µM

COC(=O)[C@H](C)NP(=O)(OCC1OC(n2cc(C)c(=O)[nH]c2=O)CC1N=[N+]=[N-])Oc1ccccc1 (stereo partly drawn) [Compound 462, 3′-Deoxy-3′-β-azidothymidine 5′-(phenylmethoxylalaninyl) phosphoramidate]
EC50 ([1]; CEM cells, HIV-1): 27.5 µM | EC50 [2, 12]: 30 µM | EC50 ([3]; MT4 cells, HIV-2): 11 µM | CC50 ([5]; MT-4 cells): 121 µM | EC50 ([6]; CEM cells, HIV-2): 40 µM | EC50 ([8]; MT4 cells, HIV-1): 33 µM

COC(=O)C(C)NP(=O)(OCC1OC(n2cc(C)c(=O)[nH]c2=O)CC1N=[N+]=[N-])Oc1cccc(C(F)(F)F)c1 (stereo not drawn) [Compound 536, 3′-Deoxy-3′β-azidothymidine 5′-(m-trifluoromethylphenylmethoxylalaninyl) phosphoramidate]
EC50 ([1]; CEM cells, HIV-1): 1 µM | EC50 [2, 12]: 3 µM | EC50 ([3]; MT4 cells, HIV-2): 0.9 µM | CC50 ([5]; MT-4 cells): 104 µM | EC50 ([6]; CEM cells, HIV-2): 2 µM | EC50 ([8]; MT4 cells, HIV-1): 0.45 µM

COC(=O)[C@H](C)NP(=O)(OCC1OC(n2cc(C)c(=O)[nH]c2=O)CC1N=[N+]=[N-])Oc1cc(Cl)cc(Cl)c1 (stereo partly drawn) [Compound 550, 3′-Deoxy-3′-β-azidothymidine 5′-(3,5-dichlorophenylmethoxylalaninyl) phosphoramidate]
EC50 ([1]; CEM cells, HIV-1): 1.4 µM | EC50 [2, 12]: 12 µM | EC50 ([3]; MT4 cells, HIV-2): 1 µM | CC50 ([5]; MT-4 cells): 98 µM | EC50 ([6]; CEM cells, HIV-2): 3 µM | EC50 ([8]; MT4 cells, HIV-1): 0.5 µM

CCOP(=O)(N[C@@H](C)C(=O)OC)OC[C@@H]1C=C[C@H](n2cc(C)c(=O)[nH]c2=O)O1 (some centres unmarked) [Compound 564]
EC50 [1, 10]: > 48 µM | EC50 [2, 11]: > 48 µM | EC50 [3, 10]: 62.6 µM | CC50 [5, 10]: ≥ 250 µM | EC50 [6, 10]: > 240 µM | CC50 [7]: ≥ 250 µM | EC50 [8, 10]: 28.5 µM

COC(=O)[C@H](C)NP(=O)(OC)OC[C@@H]1C=C[C@H](n2cc(C)c(=O)[nH]c2=O)O1 (some centres unmarked) [Compound 740]
EC50 [1, 10]: 20 µM | EC50 [2, 11]: > 250 µM | EC50 [3, 10]: 50.9 µM | CC50 [5, 10]: > 250 µM | EC50 [6, 10]: 50 µM | CC50 [7]: > 250 µM | EC50 [8, 10]: 25.4 µM

COC(=O)C(C)NP(=O)(OC[C@@H]1C=C[C@H](n2cc(C)c(=O)[nH]c2=O)O1)Oc1c(F)c(F)c(F)c(F)c1F (some centres unmarked) [Compound 779, 2′,3′-dideoxy-2′,3′-didehydrothymidine-5′-(2,3,4,5,6-pentafluorophenyl-N-methylalaninyl) phosphoramidate]
EC50 [1, 10]: 2.5 µM | EC50 [2, 11]: 8.5 µM | EC50 [3, 10]: 4.01 µM | Selectivity CC50/EC50 × 10^3 [4]: 1.25 × 10^3 | EC50 [4]: 0.064 µM | CC50 [5, 10]: 82 µM | EC50 [6, 10]: 3.7 µM | CC50 [7]: 115 µM | EC50 [8, 10]: 1.72 µM | CC50 [9]: 80 µM

COC(=O)C(Cc1ccccc1)NP(=O)(OC[C@@H]1C=C[C@H](n2cc(C)c(=O)[nH]c2=O)O1)Oc1ccccc1 (some centres unmarked) [Compound 863, 2′,3′-dideoxy-2′,3′-didehydrothymidine-5′-(phenyl N-methoxy-phenylalaninyl) phosphoramidate]
EC50 [1, 10]: 0.8 µM | EC50 [2, 11]: 0.33 µM | EC50 [3, 10]: 0.4 µM | Selectivity CC50/EC50 × 10^3 [4]: 31.2 × 10^3 | EC50 [4]: 0.016 µM | CC50 [5, 10]: 34 µM | EC50 [6, 10]: 1.35 µM | CC50 [7]: 216 µM | EC50 [8, 10]: 0.2 µM | CC50 [9]: 500 µM

COC(=O)C(CC(C)C)NP(=O)(OCC1C=CC(n2cc(C)c(=O)[nH]c2=O)O1)Oc1ccccc1 (centres unmarked) [Compound 864, 2′,3′-dideoxy-2′,3′-didehydrothymidine-5′-(phenyl N-methoxy-leucinyl) phosphoramidate]
EC50 [1, 10]: 1.1 µM | EC50 [2, 11]: 0.4 µM | EC50 [3, 10]: 0.5 µM | Selectivity CC50/EC50 × 10^3 [4]: >62.5 × 10^3 | EC50 [4]: 0.016 µM | CC50 [5, 10]: 62 µM | EC50 [6, 10]: 2.23 µM | CC50 [7]: ≥ 250 µM | EC50 [8, 10]: 0.2 µM | CC50 [9]: > 1000 µM

COC(=O)C(NP(=O)(OCC1C=CC(n2cc(C)c(=O)[nH]c2=O)O1)Oc1ccccc1)C(C)C (centres unmarked) [Compound 865, 2′,3′-dideoxy-2′,3′-didehydrothymidine-5′-(phenyl N-methoxyvalinyl) phosphoramidate]
EC50 [1, 10]: 12.5 µM | EC50 [2, 11]: 4 µM | EC50 [3, 10]: 11.2 µM | Selectivity CC50/EC50 × 10^3 [4]: >1.25 × 10^3 | EC50 [4]: 0.8 µM | CC50 [5, 10]: ≥ 250 µM | EC50 [6, 10]: 12.5 µM | CC50 [7]: > 250 µM | EC50 [8, 10]: 3.6 µM | CC50 [9]: > 1000 µM

Cc1cn(C2CC(N=[N+]=[N-])C(CO)O2)c(=O)[nH]c1=O (centres unmarked) [Cpd 499]
EC50 ([1]; CEM cells, HIV-1): 3 µM | EC50 [2, 12]: > 250 µM | EC50 ([3]; MT4 cells, HIV-2): 2.3 µM | CC50 ([5]; MT-4 cells): > 250 µM | EC50 ([6]; CEM cells, HIV-2): 4 µM | EC50 ([8]; MT4 cells, HIV-1): 0.9 µM
